Test results as given in ChEMBL document CHEMBL1201862, “PubChem BioAssay data set” (2004).
Each block holds one compound with its values, some of them ahead of it. Active and inactive are the calls of the source.

What was measured:
[1] = target: Voltage-dependent T-type calcium channel subunit alpha-1H (Homo sapiens, UniProt O95180); assay type: functional;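 note: channel activity triggered by adding a high calcium stimulation buffer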
[2] = target: T1, Cytochrome P450 3A4 (Homo sapiens, UniProt P08684); settings: Potency
[3] = target: Prothrombin (Homo sapiens, UniProt P00734); test: Thrombin 1536 HTS Dose Response Confirmation. [Related pubchem assays: 1046 (Thrombin 1536 HTS; hits were confirmed in this assay)]; assay type: functional
[4] = test system: INS1; test: beta cell apoptosis inhibitors, cytokine rescue, dose response, luminescence, retest (AID 449756); assay type: functional, cell-based; settings: Rattus norvegicus;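 note: cell death triggered by IL-1 beta plus TNF-alpha plus IFN-gamma mixture; protective hits raise ATP signal compared with cytokine alone wells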
[5] = target: T2, Mannose-6-phosphate isomerase (Homo sapiens, UniProt P34949); test: human PMI inhibitors, high substrate, primary screen, biochemical, fluorescence intensity, high mannose 6-phosphate (AID 1220)
T2 sequence (P34949 whole entry): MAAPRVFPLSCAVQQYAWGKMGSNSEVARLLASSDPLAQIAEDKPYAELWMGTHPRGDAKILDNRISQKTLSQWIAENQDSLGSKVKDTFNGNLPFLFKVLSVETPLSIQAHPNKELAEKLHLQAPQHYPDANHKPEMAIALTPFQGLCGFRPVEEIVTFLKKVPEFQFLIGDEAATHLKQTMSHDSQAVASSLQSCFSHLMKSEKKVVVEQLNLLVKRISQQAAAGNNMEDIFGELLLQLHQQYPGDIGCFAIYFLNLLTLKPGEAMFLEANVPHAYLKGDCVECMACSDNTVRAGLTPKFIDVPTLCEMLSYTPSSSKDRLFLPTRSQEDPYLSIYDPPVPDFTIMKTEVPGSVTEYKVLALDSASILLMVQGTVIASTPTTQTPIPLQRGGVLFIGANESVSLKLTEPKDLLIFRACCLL

[6] = target: Induced myeloid leukemia cell differentiation protein Mcl-1 (Homo sapiens, UniProt Q07820); assay type: functional
[7] = target: T3, Carboxy-terminal domain RNA polymerase II polypeptide A small phosphatase 1 (Homo sapiens, UniProt Q9GZU7); test: inhibitors of CTDSP1, concentration-response testing, biochemical assay, absorbance-based, actives from ultra-high-throughput screening (AID 540297); assay type: functional
T3 sequence (Q9GZU7 whole entry): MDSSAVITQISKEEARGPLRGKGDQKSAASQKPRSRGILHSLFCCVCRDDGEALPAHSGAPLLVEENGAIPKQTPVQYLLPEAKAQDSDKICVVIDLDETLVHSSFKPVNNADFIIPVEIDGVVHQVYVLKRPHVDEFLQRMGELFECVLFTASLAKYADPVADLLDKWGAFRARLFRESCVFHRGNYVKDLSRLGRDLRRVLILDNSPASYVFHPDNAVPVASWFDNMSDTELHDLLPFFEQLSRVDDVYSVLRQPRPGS

[8] = target: T4, Calpain-2 catalytic subunit (Sus scrofa, UniProt P43367); test: pig calpain II inhibitor potency, dose response, biochemical, fluorogenic peptide substrate (AID 1420); assay type: functional
T4 sequence (P43367 whole entry): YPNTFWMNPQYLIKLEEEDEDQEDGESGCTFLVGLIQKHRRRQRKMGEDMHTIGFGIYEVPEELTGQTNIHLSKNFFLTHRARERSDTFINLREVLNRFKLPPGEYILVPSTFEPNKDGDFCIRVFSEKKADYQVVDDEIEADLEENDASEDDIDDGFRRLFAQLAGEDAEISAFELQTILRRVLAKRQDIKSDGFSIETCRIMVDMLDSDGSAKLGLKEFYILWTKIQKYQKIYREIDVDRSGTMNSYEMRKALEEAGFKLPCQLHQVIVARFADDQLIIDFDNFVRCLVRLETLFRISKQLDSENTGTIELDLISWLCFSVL

[9] = cytotoxicity in HEK-293T cells, dose response, cytotoxicity control for BCR NF-kB inhibitor project, luminescence, B-cell screen hits (AID 489021); assay type: functional, cell-based;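 note: HEK-293T cells carrying an NF-kB luciferase reporter; cells exposed to compound for about 14 hours before viability readout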
[10] = inhibitors of intracellular T. cruzi replication, confirmation, NIH3T3 host cells, beta-gal luminescence (AID 2044); assay type: functional, cell-based;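 note: intracellular parasites grown in NIH/3T3 mouse fibroblasts as host cells; luminescent beta-galactosidase reporter signal from transgenic T. cruzi replicating inside host cells; inhibitors lower the luminescence signal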
[11] = cytotoxicity toward NIH3T3 fibroblasts, dose response, counter-screen, cell-based, ATP luminescence, mouse fibroblasts (AID 2010); assay type: functional;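 note: cells exposed to compound for about 90 hours before reading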
[12] = target: T5, Aminopeptidase N (Plasmodium falciparum FcB1/Columbia, UniProt O96935); test: P. falciparum M1AAP inhibitors, biochemical, fluorogenic H-Leu-NHMec substrate, 1536-well (AID 1445); set-up: species or system Plasmodium falciparum 3D7, 3D7
T5 sequence (O96935 whole entry): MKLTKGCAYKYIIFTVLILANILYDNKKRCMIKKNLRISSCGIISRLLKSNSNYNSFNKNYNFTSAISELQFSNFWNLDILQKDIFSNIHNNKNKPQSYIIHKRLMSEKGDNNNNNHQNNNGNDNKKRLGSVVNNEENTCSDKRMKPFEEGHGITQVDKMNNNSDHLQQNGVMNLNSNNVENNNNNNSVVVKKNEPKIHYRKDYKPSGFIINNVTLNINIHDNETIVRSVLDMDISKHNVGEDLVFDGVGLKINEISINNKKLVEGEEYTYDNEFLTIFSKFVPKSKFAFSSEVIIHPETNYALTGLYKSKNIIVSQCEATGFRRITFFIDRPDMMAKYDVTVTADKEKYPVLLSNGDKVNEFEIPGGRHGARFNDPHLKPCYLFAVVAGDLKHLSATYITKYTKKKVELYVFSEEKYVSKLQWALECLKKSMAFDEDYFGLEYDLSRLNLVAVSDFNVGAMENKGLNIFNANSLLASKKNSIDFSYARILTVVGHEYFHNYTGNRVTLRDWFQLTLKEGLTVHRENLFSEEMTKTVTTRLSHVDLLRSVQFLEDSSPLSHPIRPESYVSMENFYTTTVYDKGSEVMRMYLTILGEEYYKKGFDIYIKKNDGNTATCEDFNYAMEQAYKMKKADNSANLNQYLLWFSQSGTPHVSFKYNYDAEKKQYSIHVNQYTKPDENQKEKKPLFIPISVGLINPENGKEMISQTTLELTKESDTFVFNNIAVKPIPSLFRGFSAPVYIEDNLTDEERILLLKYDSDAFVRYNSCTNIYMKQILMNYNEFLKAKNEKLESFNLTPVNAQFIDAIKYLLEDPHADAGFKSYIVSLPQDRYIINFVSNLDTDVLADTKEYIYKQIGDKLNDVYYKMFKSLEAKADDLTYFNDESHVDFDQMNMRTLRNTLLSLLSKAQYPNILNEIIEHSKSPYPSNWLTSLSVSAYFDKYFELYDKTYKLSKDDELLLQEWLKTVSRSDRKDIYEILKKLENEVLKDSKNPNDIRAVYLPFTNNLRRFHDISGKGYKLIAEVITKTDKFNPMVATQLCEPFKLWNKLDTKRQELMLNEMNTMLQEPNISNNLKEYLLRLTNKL

[13] = target: T6, Leucine aminopeptidase (Plasmodium falciparum 3D7, UniProt Q8IL11); test: P. falciparum M17LAP inhibitors, primary screen, biochemical, fluorogenic H-Leu-NHMec substrate, 1536-well (AID 1619); assay type: functional
T6 sequence (Q8IL11 whole entry): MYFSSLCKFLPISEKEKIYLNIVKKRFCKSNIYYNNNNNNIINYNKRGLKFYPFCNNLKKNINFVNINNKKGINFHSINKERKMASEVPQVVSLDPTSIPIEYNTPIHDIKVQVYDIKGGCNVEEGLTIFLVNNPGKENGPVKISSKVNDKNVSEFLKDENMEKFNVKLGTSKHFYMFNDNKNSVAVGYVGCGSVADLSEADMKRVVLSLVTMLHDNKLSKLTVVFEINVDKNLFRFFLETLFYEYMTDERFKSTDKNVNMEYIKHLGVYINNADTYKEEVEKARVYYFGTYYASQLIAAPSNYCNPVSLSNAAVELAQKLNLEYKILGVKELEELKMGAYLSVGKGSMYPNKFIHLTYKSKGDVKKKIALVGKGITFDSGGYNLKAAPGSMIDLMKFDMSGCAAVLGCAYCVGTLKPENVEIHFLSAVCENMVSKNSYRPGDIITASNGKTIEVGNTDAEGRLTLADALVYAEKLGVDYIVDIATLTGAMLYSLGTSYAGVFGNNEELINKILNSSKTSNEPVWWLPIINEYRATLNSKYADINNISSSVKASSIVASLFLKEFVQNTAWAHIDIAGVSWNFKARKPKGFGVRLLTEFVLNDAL

[14] = cells; assay type: functional, cell-based
[15] = cells; assay type: functional, cell-based; remark: listed apart in the source
[16] = C. albicans growth with fluconazole, confirmation, fluorescence, retest (AID 2467); assay type: functional, cell-based
[17] = NIH-3T3 fibroblast cytotoxicity, dose response, cytotoxicity control, cell-based, fluorescence, Alamar Blue, secondary assay (AID 2327); assay type: functional;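 note: NIH-3T3 mouse fibroblasts cultured with fluconazole at 8 µg/mL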
[18] = target: T1, Cytochrome P450 3A4

Voltage-dependent T-type calcium channel subunit alpha-1H, sequence (O95180 whole entry): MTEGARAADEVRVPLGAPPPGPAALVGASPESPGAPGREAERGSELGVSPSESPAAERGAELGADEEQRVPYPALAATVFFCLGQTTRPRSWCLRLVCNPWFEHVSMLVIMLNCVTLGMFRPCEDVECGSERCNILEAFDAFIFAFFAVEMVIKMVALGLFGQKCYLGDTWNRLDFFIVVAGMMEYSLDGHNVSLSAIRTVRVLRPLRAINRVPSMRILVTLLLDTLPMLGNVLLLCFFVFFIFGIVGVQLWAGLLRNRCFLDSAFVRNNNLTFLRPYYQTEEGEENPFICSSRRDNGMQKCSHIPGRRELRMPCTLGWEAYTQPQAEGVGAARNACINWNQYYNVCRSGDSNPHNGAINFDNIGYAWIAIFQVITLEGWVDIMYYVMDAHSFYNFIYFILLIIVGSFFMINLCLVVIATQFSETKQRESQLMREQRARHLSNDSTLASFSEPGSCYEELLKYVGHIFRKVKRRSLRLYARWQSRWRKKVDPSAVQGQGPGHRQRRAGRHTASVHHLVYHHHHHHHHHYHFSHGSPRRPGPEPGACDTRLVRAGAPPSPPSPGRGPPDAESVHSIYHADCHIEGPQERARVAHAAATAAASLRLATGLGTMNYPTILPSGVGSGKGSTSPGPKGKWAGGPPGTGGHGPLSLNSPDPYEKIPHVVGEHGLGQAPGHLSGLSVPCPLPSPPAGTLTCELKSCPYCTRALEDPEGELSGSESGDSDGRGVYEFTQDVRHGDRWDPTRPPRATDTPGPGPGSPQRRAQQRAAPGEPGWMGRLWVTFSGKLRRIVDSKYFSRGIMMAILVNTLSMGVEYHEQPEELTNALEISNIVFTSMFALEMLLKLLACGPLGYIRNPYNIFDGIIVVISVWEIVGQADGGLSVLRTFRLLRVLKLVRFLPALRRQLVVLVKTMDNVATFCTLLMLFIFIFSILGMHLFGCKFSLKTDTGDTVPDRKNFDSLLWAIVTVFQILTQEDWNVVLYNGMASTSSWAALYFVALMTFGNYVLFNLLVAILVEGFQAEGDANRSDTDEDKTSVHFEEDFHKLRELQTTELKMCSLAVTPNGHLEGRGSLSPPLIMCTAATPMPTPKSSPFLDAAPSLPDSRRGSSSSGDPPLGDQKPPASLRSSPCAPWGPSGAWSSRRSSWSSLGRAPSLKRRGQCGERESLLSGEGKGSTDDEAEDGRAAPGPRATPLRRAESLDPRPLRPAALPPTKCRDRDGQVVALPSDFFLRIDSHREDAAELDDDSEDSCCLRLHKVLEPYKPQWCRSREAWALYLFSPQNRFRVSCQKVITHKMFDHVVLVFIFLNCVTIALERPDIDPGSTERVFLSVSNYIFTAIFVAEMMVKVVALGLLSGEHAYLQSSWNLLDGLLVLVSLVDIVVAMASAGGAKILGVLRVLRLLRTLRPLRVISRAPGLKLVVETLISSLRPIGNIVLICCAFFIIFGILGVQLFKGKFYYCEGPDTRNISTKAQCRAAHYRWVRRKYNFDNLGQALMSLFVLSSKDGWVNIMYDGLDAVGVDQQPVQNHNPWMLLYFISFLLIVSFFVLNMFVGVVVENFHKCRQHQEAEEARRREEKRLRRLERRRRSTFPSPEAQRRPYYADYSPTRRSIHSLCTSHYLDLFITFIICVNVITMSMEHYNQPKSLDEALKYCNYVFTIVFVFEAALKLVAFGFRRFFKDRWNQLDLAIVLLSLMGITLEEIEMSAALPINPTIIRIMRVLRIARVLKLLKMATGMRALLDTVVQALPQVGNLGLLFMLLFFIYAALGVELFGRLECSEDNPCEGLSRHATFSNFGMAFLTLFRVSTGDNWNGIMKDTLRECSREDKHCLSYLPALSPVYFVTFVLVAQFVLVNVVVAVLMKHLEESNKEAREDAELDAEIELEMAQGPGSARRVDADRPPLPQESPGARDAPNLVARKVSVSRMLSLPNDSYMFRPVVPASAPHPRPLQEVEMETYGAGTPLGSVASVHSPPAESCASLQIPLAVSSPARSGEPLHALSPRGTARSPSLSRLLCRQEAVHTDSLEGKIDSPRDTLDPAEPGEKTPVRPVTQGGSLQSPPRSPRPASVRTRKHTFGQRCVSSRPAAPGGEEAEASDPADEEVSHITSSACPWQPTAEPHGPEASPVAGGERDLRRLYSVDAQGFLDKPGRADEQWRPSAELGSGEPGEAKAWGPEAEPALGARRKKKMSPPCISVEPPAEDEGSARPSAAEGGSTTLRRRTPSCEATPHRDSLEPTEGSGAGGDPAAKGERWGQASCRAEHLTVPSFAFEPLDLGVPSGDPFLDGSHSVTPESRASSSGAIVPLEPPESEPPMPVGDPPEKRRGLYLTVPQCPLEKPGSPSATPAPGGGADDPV
Induced myeloid leukemia cell differentiation protein Mcl-1, sequence (Q07820 whole entry, the tested form may be a part): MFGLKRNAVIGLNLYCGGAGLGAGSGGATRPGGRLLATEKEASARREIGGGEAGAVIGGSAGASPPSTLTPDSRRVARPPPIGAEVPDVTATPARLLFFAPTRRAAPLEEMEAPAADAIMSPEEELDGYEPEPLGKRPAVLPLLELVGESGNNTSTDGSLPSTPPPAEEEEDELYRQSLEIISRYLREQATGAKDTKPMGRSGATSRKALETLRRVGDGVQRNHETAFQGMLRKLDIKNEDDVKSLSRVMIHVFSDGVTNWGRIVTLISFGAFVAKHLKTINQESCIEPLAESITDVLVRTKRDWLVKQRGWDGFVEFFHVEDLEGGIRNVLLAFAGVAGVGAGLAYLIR
T1 sequence (P08684 whole entry): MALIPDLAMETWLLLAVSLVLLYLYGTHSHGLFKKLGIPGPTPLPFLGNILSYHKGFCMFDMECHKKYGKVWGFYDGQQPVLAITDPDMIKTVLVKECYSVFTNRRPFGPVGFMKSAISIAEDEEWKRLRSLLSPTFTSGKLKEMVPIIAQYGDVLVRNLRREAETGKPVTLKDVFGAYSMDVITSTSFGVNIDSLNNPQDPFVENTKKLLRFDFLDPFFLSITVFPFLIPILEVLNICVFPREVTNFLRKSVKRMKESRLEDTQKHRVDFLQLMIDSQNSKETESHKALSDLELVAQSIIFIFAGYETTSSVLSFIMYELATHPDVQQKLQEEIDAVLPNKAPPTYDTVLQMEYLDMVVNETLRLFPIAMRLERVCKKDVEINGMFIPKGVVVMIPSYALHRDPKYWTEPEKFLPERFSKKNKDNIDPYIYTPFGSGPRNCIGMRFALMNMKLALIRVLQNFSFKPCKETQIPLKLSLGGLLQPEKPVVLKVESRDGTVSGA

- EC50 [1]: 2.44 µM (active)
SMILES: Cn1cccc1Cc1nnc(SCC(=O)Nc2ccccc2)n1-c1ccc(F)cc1

- AC50 [2]: 15.8 µM (inconclusive)
SMILES: C=CC(C1=CC(=O)C(OC)=C(OC)C1=O)c1ccccc1 (centres undefined)

- IC50 [3]: > 50 µM (not active)
SMILES: CCOc1cc(S(=O)(=O)N2CCCCC2)ccc1Cl

- IC50 [3]: > 50 µM (not active)
SMILES: CCN(CC)Cc1ccccc1Sc1ccccc1

- IC50 [3]: 0.103 µM (active)
SMILES: COCC(=O)n1nc(-c2ccccc2)nc1NCc1ccc(F)cc1

- EC50 [1]: 10.2 µM (active)
SMILES: Cc1ccc(N(C(=O)Cc2c[nH]c3ccccc23)C(C(=O)NC2CCCCC2)c2ccco2)cc1 (centres undefined)

- AC50 [2]: 3.98 µM (inconclusive)
SMILES: C/C=C/C1Oc2ccc(OC)cc2N2C(=O)C(C)C(OCOC)C12 (centres undefined)

- AC50 [2]: 10 µM (inconclusive)
SMILES: CCC1=C(OC(=O)N(CC)CC)N2C(=O)O/C(=N\CCOC)[C@]2(C)[C@H]2C1=CC[C@H]1C(=O)NC(=O)[C@H]12

SMILES: Cc1ccc(NC(=O)c2c(-c3c(F)cccc3Cl)noc2C)cc1F
- EC50 [1]: 5.69 µM (active)
- AC50 [4]: > 260 µM (inactive)

- IC50 [5]: > 50 µM (not active)
SMILES: CCN(Cc1ccncc1)Cc1c(O)ccc2ccccc12

- IC50 [6]: 3.18 µM (active)
- IC50 [7]: 4.01 µM (active)
SMILES: CCc1nnc(NC(=O)c2cc(-c3ccco3)nc3ccccc23)s1

- AC50 [2]: 12.6 µM (inconclusive)
SMILES: CCCn1c(C)nc2c(N(CCN(C)C)Cc3ccccc3)nc(C)nc21

- IC50 [3]: > 50 µM (not active)
SMILES: Cc1cc(N2CCN(c3ccccc3)CC2)nc(-c2ccccc2)n1

SMILES: CCCC(=O)Nc1ccc(Sc2ccc([N+](=O)[O-])cc2)cc1
- IC50 [8]: 10.7 µM (not active)
- IC50 [9]: 77.8 µM (inactive)

SMILES: CCN1C(=O)c2cccc3c(S(=O)(=O)Nc4ccccc4)ccc1c23
- IC50 [9]: > 80 µM (inactive)

- EC50 [1]: 6.34 µM (active)
SMILES: Cc1[nH]c2ccccc2c1SCC(=O)N1CCCc2ccccc21

SMILES: Oc1ccc(CNc2ccc(F)cc2)c2cccnc12
- EC50 [10]: 5.56 µM (active)
- EC50 [11]: > 60 µM (not active)
- IC50 [5]: 31 µM (active)

- IC50 [3]: > 50 µM (not active)
SMILES: CC(C)c1ccc(-c2c(C#N)c(N)nc(SCC(=O)N3CCCCCC3)c2C#N)cc1

- IC50 [12]: 63.9 µM (active)
SMILES: CC(C)C[C@H](NC(=O)c1[nH]cnc1C(=O)NC1CCN(C(=O)OC(C)(C)C)CC1)C(=O)OC(C)(C)C

- IC50 [13]: 105 µM (active)
- IC50 [12]: 33.9 µM (active)
SMILES: O=C(O)C/C(=C\c1ccc(Cl)cc1)c1nc2ccccc2o1

- IC50 [6]: 5.85 µM (active)
SMILES: O=C1/C(=C/c2ccccn2)SC(=S)N1c1ccc(O)cc1

SMILES: CCC(=O)N1c2ccccc2C(N(C(C)=O)c2ccccc2)CC1C (centres undefined)
- EC50 [14]: > 350 µM (not active)
- IC50 [9]: > 80 µM (inactive)
- EC50 [15]: > 350 µM (not active)

- IC50 [3]: > 50 µM (not active)
SMILES: CCOC(=O)N1CCN(C(=O)c2ccccc2N(C)S(C)(=O)=O)CC1

- EC50 [1]: 550 µM (active)
SMILES: O=c1oc2ccccc2n1CSc1nc2ccccc2s1

- IC50 [12]: 37.5 µM (active)
SMILES: Cc1c(O)c(CN2CCCCC2)cc2c3c(c(=O)oc12)CCC3

SMILES: CCOP(=O)(OCC)c1nc(-c2cccc([N+](=O)[O-])c2)oc1N1CCCCC1
- IC50 [12]: 50.1 µM (active)

SMILES: CC(C)C(c1nnnn1Cc1ccccc1)N(Cc1ccco1)Cc1cccs1 (centres undefined)
- IC50 [9]: > 80 µM (inactive)

- IC50 [6]: 9.49 µM (not active)
SMILES: O=C1C2C3C=CC(C2C(=O)N1c1cccc(O)c1)C1C2C(=O)N(c4cccc(O)c4)C(=O)C2C31 (centres undefined)

- IC50 [13]: 21.3 µM (active)
- IC50 [12]: 36.3 µM (active)
SMILES: CCOC(=O)C1=C(Nc2ccc(OC)cc2)S/C(=C\c2ccc(OCC(=O)O)c(OCC)c2)C1=O

SMILES: CC(=O)c1cccc(S(=O)(=O)Nc2cc(C(F)(F)F)ccc2N2CCOCC2)c1
- IC50 [9]: > 80 µM (inactive)

- IC50 [6]: 6.03 µM (active)
SMILES: Cc1c(O)ccc(/C=N/Nc2nc(-c3cccnc3)nc3ccccc23)c1O

SMILES: Nc1nonc1C(=O)N/N=C/c1cc(Br)ccc1O
- EC50 [16]: 0.782 µM (active)
- EC50 [14]: 108 µM (active)
- EC50 [15]: > 350 µM (not active)
- IC50 [12]: 3.45 µM (active)
- EC50 [17]: > 160 µM (inactive)

- IC50 [5]: > 50 µM (not active)
SMILES: C/N=C(/c1ccco1)n1c(=S)nc(-c2ccco2)n(C)c1=S

- AC50 [2]: 10 µM (inconclusive)
SMILES: C=CCNC(=O)c1cc([N+](=O)[O-])cc2c(=O)[nH]c(Nc3ccc(Cl)c(Cl)c3)nc12

- AC50 [2]: 10 µM (inconclusive)
- AC50 [18]: 15.8 µM (inconclusive)
SMILES: Clc1ccc2c(c1)C(N1CCNCC1)=Nc1ccccc1O2 [AMOXAPINE]
